Laboratory results taken from paper PMC9841523 (Journal of Medicinal Chemistry, 2022).

Legend:
Experiment in all cases: KiNativ kinase panel
AMPKa1, AMPKa2 = format: cell-based, human; details: 1 μM, MCF-7 Cells
CHK1 = biological target: T1, CHK1 (Homo sapiens, UniProt O14757); format: cell-based; details: 1 μM, MCF-7 Cells
T1 construct: host or cells: MCF7
T1 sequence (O14757 1-476): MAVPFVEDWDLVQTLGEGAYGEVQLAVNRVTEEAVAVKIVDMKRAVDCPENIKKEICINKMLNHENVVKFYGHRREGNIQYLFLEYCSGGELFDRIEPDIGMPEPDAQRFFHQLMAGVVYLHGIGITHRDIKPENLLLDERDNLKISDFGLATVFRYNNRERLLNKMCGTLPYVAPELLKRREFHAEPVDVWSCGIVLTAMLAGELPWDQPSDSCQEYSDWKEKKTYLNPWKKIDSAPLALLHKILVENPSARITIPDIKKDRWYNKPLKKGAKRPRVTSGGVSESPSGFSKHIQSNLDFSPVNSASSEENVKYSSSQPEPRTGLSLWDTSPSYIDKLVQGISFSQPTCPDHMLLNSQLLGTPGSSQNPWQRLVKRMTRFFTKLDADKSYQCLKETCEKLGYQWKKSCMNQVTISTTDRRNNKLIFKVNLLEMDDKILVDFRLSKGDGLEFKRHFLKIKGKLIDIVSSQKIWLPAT

CK1g1 = biological target: T2, CK1g1 (Homo sapiens, UniProt Q9HCP0); format: cell-based; details: 1 μM, MCF-7 Cells, Lys2
T2 construct: endogenous in cells; host or cells: MCF7

CSK = biological target: T3, CSK (Homo sapiens, UniProt P41240); format: cell-based; details: 1 μM, MCF-7 Cells
T3 construct: MCF7 cells were exposed to; endogenous in cells; host or cells: MCF7

DLK = biological target: T4, DLK (Homo sapiens, UniProt Q12852); format: cell-based; details: 1 μM; MCF-7 Cells; Lys2; DLKSPNMLITYDDVVK
T4 construct: endogenous in cells; host or cells: MCF7

EGFR = biological target: T5, EGFR (Homo sapiens, UniProt P00533); format: cell-based; details: 1 μM, MCF-7 Cells
T5 construct: MCF7 cells were exposed to; endogenous in cells; host or cells: MCF7

IKKe, TBK1 = format: cell-based, human; details: 1 μM; MCF-7 Cells; Lys2; DIKPGNIMR
JAK1_Domain2 domain2 = biological target: T6, JAK1_Domain2 domain2 (Homo sapiens, UniProt P23458); format: cell-based; details: 1 μM, MCF-7 Cells
T6 construct: endogenous in cells; host or cells: MCF7

MAP2K1, MAP2K2 = format: cell-based, human; details: 1 μM, MCF-7 Cells
[1] = test system: MSK1 domain1, MSK2 domain1; format: cell-based, human; details: 1 μM, MCF-7 Cells, ATP Loop
MST1, MST2 = format: cell-based, human; details: 1 μM, MCF-7 Cells, Lys2
MST3 = biological target: T7, MST3 (Homo sapiens, UniProt Q9Y6E0); format: cell-based; details: 1 μM; MCF-7 Cells; Lys2; DIKAANVLLSEHGEVK
T7 construct: purchased ActivX Biosciences (KiNativ)

MST3, MST4, YSK1 = format: cell-based, human; details: 1 μM, MCF-7 Cells, Activation Loop
MST4, YSK1 = format: cell-based, human; details: 1 μM, MCF-7 Cells, Lys2
NuaK2 = biological target: T8, NuaK2 (Homo sapiens, UniProt Q9H093); format: cell-based; details: 1 μM; MCF-7 Cells; Lys1; LVAIKSIR
T8 construct: purchased ActivX Biosciences (KiNativ)

p38a = biological target: T9, p38a (Homo sapiens, UniProt Q16539); format: cell-based; details: 1 μM, MCF-7 Cells
T9 construct: purchased ActivX Biosciences (KiNativ)

p38d, p38g = format: cell-based, human; details: 1 μM, MCF-7 Cells, Lys2
p70S6K, p70S6Kb = format: cell-based, human; details: 1 μM, MCF-7 Cells, ATP Loop
PI4KA, PI4KAP2 = format: cell-based, human; details: 1 μM, MCF-7 Cells, ATP
SMG1 = biological target: T10, SMG1 (Homo sapiens, UniProt Q96Q15); format: cell-based; details: 1 μM, MCF-7 Cells, ATP
T10 construct: endogenous in cells; host or cells: MCF7

SYK = biological target: T11, SYK (Homo sapiens, UniProt P43405); format: cell-based; details: 1 μM, MCF-7 Cells
T11 construct: MCF7 cells were exposed to; endogenous in cells; host or cells: MCF7

TYK2_Domain2 domain2 = biological target: T12, TYK2_Domain2 domain2 (Homo sapiens, UniProt P29597); format: cell-based; details: 1 μM; MCF-7 Cells; Activation Loop; IGDFGLAKAVPEGHEYYR
T12 construct: Briefly, MCF7 cells were exposed to; endogenous in cells; host or cells: MCF7

[2] = test system: ZC1/HGK, ZC2/TNIK, ZC3/MINK; format: cell-based, human; details: 1 μM, MCF-7 Cells, Lys2
[3] = Activation Loop, VSDFGLTKEASSTQDTGKLPVK
[4] = Activation Loop, IGDFGLTKAIETDKEYYTVK
[5] = Lys1, YDPEGDNTGEQVAVKSLKPESGGNHIADLKK

T9 sequence (Q16539 whole entry): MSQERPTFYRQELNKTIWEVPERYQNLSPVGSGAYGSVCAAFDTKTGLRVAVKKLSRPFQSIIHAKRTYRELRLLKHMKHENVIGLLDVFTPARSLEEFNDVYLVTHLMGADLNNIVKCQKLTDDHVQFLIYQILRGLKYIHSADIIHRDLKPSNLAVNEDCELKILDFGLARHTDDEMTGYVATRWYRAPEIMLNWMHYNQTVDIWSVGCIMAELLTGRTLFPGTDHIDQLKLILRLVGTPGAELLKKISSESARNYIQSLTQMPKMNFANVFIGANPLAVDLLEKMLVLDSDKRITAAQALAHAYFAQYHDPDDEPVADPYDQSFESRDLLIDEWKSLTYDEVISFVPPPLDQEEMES
T6 sequence (P23458 whole entry, the tested form may be a part): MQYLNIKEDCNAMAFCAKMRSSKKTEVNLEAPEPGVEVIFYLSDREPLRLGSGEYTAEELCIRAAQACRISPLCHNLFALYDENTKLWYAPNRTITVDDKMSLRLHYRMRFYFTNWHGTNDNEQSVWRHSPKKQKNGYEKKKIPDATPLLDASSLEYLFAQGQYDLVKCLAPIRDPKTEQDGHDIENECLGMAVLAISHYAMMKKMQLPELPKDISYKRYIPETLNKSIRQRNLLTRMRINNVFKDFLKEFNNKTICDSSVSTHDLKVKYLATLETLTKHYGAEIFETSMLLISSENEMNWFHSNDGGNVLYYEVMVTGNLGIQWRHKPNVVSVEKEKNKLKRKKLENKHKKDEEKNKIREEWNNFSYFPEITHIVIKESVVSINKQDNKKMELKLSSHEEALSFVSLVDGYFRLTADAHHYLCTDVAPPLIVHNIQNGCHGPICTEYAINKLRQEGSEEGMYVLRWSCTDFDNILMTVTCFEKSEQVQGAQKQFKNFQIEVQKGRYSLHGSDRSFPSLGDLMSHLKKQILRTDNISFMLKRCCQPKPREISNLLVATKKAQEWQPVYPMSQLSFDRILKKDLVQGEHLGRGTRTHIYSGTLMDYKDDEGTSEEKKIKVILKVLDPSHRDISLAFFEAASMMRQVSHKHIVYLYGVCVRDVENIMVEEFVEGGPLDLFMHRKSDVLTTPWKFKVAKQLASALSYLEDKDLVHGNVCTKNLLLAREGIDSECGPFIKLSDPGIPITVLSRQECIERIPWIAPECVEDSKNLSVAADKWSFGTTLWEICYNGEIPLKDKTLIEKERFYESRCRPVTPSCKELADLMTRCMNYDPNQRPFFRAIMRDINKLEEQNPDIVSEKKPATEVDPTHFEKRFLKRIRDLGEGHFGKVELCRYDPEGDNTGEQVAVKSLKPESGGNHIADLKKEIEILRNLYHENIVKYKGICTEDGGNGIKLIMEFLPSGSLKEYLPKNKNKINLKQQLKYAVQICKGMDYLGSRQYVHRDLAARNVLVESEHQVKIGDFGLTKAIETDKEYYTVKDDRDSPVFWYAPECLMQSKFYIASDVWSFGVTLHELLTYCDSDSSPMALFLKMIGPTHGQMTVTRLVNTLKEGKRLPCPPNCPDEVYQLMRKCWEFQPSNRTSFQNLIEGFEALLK
T10 sequence (Q96Q15 whole entry): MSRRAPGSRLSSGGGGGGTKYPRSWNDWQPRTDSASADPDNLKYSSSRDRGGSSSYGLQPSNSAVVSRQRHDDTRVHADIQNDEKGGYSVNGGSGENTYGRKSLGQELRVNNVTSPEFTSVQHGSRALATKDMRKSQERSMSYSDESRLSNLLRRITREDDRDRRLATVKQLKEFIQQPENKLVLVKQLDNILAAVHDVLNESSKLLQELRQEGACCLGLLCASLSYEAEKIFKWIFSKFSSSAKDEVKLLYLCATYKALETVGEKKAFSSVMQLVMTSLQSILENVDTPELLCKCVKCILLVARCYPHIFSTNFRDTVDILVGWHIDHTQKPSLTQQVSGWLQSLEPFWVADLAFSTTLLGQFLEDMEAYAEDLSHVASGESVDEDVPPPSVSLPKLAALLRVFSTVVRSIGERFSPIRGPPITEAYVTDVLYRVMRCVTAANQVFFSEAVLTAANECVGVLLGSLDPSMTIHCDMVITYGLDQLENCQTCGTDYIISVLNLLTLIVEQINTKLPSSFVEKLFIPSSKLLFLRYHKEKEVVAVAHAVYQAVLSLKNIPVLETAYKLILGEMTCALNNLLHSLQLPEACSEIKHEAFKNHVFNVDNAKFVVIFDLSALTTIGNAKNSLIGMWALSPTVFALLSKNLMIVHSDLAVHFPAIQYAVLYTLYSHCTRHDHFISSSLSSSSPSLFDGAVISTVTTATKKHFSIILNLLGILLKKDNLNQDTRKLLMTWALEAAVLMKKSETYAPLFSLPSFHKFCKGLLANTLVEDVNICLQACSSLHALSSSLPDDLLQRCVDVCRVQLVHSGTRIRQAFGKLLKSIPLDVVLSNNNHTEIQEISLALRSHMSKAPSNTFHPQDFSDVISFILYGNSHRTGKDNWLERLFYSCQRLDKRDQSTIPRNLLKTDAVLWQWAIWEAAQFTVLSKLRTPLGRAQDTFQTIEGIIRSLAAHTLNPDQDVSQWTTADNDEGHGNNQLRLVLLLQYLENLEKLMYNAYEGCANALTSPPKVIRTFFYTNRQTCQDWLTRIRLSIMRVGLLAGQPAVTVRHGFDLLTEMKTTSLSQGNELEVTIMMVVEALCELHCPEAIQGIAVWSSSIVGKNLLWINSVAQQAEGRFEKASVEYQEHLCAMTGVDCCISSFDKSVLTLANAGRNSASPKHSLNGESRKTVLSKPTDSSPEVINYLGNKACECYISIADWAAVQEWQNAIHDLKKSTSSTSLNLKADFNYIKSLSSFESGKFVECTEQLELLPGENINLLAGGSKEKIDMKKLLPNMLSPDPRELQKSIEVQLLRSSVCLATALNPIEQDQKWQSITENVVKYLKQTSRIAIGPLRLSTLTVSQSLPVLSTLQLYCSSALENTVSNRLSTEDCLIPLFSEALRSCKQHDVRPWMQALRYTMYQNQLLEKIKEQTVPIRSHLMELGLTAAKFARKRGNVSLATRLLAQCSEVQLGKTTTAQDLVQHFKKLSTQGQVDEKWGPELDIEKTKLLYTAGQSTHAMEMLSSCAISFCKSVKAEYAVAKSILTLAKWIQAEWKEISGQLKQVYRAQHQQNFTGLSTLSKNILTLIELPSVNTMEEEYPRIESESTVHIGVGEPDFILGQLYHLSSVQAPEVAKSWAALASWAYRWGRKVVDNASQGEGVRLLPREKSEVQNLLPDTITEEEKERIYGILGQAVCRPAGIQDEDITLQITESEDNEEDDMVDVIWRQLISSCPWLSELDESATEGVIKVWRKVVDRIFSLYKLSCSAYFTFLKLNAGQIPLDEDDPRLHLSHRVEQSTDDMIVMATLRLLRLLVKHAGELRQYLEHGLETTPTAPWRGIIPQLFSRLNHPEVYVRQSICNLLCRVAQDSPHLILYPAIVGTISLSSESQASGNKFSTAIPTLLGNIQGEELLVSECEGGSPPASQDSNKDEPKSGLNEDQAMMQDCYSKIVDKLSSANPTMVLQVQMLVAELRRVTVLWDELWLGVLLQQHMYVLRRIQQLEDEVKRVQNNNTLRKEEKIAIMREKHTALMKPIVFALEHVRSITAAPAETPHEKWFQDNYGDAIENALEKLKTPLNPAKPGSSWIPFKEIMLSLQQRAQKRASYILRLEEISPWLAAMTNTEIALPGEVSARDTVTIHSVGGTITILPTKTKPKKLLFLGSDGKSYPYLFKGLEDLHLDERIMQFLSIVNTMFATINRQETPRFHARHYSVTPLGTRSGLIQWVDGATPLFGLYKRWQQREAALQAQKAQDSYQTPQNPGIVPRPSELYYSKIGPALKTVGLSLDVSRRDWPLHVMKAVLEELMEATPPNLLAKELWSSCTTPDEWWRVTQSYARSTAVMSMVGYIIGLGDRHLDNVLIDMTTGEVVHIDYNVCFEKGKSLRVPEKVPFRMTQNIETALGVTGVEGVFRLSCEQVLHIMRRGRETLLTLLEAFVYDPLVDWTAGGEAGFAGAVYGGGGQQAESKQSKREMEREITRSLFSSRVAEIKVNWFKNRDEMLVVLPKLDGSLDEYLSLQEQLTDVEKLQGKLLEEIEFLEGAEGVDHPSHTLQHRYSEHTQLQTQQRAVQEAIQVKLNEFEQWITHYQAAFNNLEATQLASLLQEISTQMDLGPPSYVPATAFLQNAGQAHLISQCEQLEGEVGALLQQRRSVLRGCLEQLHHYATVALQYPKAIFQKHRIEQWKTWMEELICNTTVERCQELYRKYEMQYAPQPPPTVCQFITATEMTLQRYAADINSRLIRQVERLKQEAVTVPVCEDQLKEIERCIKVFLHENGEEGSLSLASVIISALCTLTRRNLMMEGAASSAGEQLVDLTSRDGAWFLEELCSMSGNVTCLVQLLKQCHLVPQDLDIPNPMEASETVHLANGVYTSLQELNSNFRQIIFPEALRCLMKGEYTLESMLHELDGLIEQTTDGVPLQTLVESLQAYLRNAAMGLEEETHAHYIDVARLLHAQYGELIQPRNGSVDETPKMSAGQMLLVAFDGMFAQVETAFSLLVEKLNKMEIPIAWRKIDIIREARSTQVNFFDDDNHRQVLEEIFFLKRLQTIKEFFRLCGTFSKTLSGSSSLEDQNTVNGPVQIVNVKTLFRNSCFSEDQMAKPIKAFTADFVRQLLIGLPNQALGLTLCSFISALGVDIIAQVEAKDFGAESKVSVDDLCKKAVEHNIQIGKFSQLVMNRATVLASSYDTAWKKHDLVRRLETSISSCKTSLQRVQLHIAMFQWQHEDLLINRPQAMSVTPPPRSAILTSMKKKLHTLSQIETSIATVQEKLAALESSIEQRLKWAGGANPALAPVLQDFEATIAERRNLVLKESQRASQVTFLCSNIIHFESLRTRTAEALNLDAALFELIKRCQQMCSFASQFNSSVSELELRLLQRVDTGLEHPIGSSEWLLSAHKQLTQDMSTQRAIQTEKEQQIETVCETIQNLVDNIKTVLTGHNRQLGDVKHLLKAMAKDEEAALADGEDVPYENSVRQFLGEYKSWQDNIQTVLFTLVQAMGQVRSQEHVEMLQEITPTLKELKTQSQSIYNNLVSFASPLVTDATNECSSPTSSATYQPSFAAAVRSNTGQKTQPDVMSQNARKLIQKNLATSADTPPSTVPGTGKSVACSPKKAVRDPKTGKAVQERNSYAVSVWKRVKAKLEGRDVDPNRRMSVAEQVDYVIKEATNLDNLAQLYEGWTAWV

| Structure (SMILES) | KiNativ Kinase Panel Data (AMPKa1, AMPKa2; Lys1, VAVKILNR) | KiNativ Kinase Panel Data (CSK; [3]) | KiNativ Kinase Panel Data (CSK; Lys1, VAVKCIK) | KiNativ Kinase Panel Data (DLK) | KiNativ Kinase Panel Data (EGFR; Lys1, IPVAIKELR) | KiNativ Kinase Panel Data (IKKe, TBK1) | KiNativ Kinase Panel Data (JAK1_Domain2 domain2; [4]) | KiNativ Kinase Panel Data (JAK1_Domain2 domain2; [5]) | KiNativ Kinase Panel Data (MAP2K1, MAP2K2; Lys1, KLIHLEIKPAIR) | KiNativ Kinase Panel Data (MST3) | KiNativ Kinase Panel Data (NuaK2) | KiNativ Kinase Panel Data (p38a; Lys2, DLKPSNLAVNEDCELK) | KiNativ Kinase Panel Data (p38a; Other, QELNKTIWEVPER) | KiNativ Kinase Panel Data (SMG1; DTVTIHSVGGTITILPTKTKPK) | KiNativ Kinase Panel Data (SMG1; SYPYLFKGLEDLHLDER) | KiNativ Kinase Panel Data (SYK; Activation Loop, ISDFGLSKALR) | KiNativ Kinase Panel Data (SYK; Lys1, TVAVKILK) | KiNativ Kinase Panel Data (TYK2_Domain2 domain2) | other results |
| --- | --- | --- | --- | --- | --- | --- | --- | --- | --- | --- | --- | --- | --- | --- | --- | --- | --- | --- | --- |
| CO[C@H]1C[C@@H]2CC[C@@H](C)[C@@](O)(O2)C(=O)C(=O)N2CCCC[C@H]2C(=O)O[C@H]([C@H](C)C[C@@H]2CC[C@@H](OC(=O)NCCOCCOCCOCCOCCOCCOCCOCCOCCC(=O)NCCS(=O)(=O)c3ccc(C(=O)N4CCOc5ccc(-c6ccc(N)nc6)cc5C4)c(C)c3F)[C@H](OC)C2)C[C@@H](O)[C@H](C)/C=C(\C)[C@@H](O)[C@@H](OC)C(=O)[C@H](C)C[C@H](C)/C=C/C=C/C=C/1C [compound 40] | 2.1 | 5.5 | 17.7 | -20.3 | -27.8 | -21.1 | 19.5 | 13.3 | -34.9 | 11.0 | 16.0 | -6.8 | -1.6 | -11.1 | 11.7 | -14.3 | -3.7 | 1.9 | KiNativ Kinase Panel Data (AMPKa1, AMPKa2; Lys2, DLKPENVLLDAHMNAK): -1.3; KiNativ Kinase Panel Data (CHK1; Lys2, DIKPENLLLDER): -10.9; KiNativ Kinase Panel Data (CHK1; Other, LSKGDGLEFK): 19.6; KiNativ Kinase Panel Data (CK1g1; DVKPENFLIGR): 1.3; KiNativ Kinase Panel Data (EGFR; Activation Loop, LLGAEEKEYHAEGGKVPIK): -40.0; KiNativ Kinase Panel Data (MAP2K1, MAP2K2; Lys2, DVKPSNILVNSR): -22.1; KiNativ Kinase Panel Data ([1]; VLGTGAYGKVFLVR): 16.0; KiNativ Kinase Panel Data (MST1, MST2; DIKAGNILLNTEGHAK): -6.5; KiNativ Kinase Panel Data (MST3, MST4, YSK1; LADFGVAGQLTDTQIKR): 20.4; KiNativ Kinase Panel Data (MST4, YSK1; DIKAANVLLSEQGDVK): -10.1; KiNativ Kinase Panel Data (p38d, p38g; DLKPGNLAVNEDCELK): -28.8; KiNativ Kinase Panel Data (p70S6K, p70S6Kb; GGYGKVFQVR): -4.7; KiNativ Kinase Panel Data (PI4KA, PI4KAP2; SGTPMQSAAKAPYLAK): -5.7; KiNativ Kinase Panel Data (SYK; Activation Loop, AQTHGKWPVK): 13.3; KiNativ Kinase Panel Data ([2]; DIKGQNVLLTENAEVK): -13.4 |
| CO[C@H]1C[C@@H]2CC[C@@H](C)[C@@](O)(O2)C(=O)C(=O)N2CCCC[C@H]2C(=O)O[C@H]([C@H](C)C[C@@H]2CC[C@@H](OC(=O)NCCOCCOCCOCCOCCOCCOCCOCCOCCC(=O)N3CCc4cc(Cn5nc(-c6ccc7oc(N)nc7c6)c6c(N)ncnc65)ccc4C3)[C@H](OC)C2)C[C@@H](O)[C@H](C)/C=C(\C)[C@@H](O)[C@@H](OC)C(=O)[C@H](C)C[C@H](C)/C=C/C=C/C=C/1C [compound 38] | 6.8 | 1.9 | 13.6 | -43.9 | -7.4 | -33.9 | 31.3 | 26.2 | 14.8 | 22.2 | 18.8 | -4.3 | -5.2 | 0.8 | 21.6 | 18.4 | 14.0 | 15.6 | KiNativ Kinase Panel Data (AMPKa1, AMPKa2; Lys2, […]): -6.5; KiNativ Kinase Panel Data (CHK1; Lys2, […]): -13.6; KiNativ Kinase Panel Data (CHK1; Other, […]): 25.4; KiNativ Kinase Panel Data (CK1g1; […]): 4.7; KiNativ Kinase Panel Data (EGFR; Activation Loop, […]): -1.8; KiNativ Kinase Panel Data (MAP2K1, MAP2K2; Lys2, […]): 7.6; KiNativ Kinase Panel Data ([1]; […]): 33.6; KiNativ Kinase Panel Data (MST1, MST2; […]): 3.0; KiNativ Kinase Panel Data (MST3, MST4, YSK1; […]): 12.4; KiNativ Kinase Panel Data (MST4, YSK1; […]): 10.5; KiNativ Kinase Panel Data (p38d, p38g; […]): -3.7; KiNativ Kinase Panel Data (p70S6K, p70S6Kb; […]): 20.1; KiNativ Kinase Panel Data (PI4KA, PI4KAP2; […]): -38.9; KiNativ Kinase Panel Data (SYK; Activation Loop, […]): 6.4; KiNativ Kinase Panel Data ([2]; […]): 8.5 |
